In ChEMBL document CHEMBL1201861, “Genomics of Drug Sensitity in Cancer screening data, Wellcome Trust Sanger Institute”:

Columns and labels:
Assay in all cases: cells
IA-LM = format: functional, cell-based; conditions: Homo sapiens;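 further: cell viability assay measuring growth inhibition of human IA-LM cells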
Description: SANGER: Inhibition of human IA-LM cell growth in a cell viability assay.

ETK-1 = format: functional, cell-based, Homo sapiens; conditions: Homo sapiens, ETK-1;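 further: growth inhibition of human ETK-1 cells, read out with a cell viability assay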
Description: SANGER: Inhibition of human ETK-1 cell growth in a cell viability assay.

NTERA-2-cl-D1 = format: functional, cell-based, Homo sapiens; conditions: Homo sapiens, NTERA-2-cl-D1;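 further: inhibition of cell growth, measured with a cell viability assay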
Description: SANGER: Inhibition of human NTERA-S-cl-D1 cell growth in a cell viability assay.

ES1 = format: functional, cell-based, Homo sapiens; conditions: Homo sapiens, ES1;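 further: growth inhibition of ES1 cells, read out with a cell viability assay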
Description: SANGER: Inhibition of human ES1 cell growth in a cell viability assay.

VA-ES-BJ = format: functional, cell-based, Homo sapiens; conditions: Homo sapiens, VA-ES-BJ;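 further: growth inhibition of the VA-ES-BJ cell line, read out by a cell viability assay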
Description: SANGER: Inhibition of human VA-ES-BJ cell growth in a cell viability assay.

KARPAS-45 = format: functional, cell-based, Homo sapiens; conditions: Homo sapiens, KARPAS-45;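 further: inhibition of cell line growth, read out through a viability assay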
Description: SANGER: Inhibition of human KARPAS-45 cell growth in a cell viability assay.

MZ1-PC = format: functional, cell-based, Homo sapiens; conditions: Homo sapiens, MZ1-PC;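 further: cell viability assay measuring growth inhibition of human MZ1-PC cells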
Description: SANGER: Inhibition of human MZ1-PC cell growth in a cell viability assay.

LU-134-A = format: functional, cell-based, Homo sapiens; conditions: Homo sapiens, LU-134-A
Description: SANGER: Inhibition of human LU-134-A cell growth in a cell viability assay.

SF-268 = format: functional, cell-based, Homo sapiens; conditions: Homo sapiens, SF-268;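 further: growth inhibition of SF-268 cells determined with a cell viability assay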
Description: SANGER: Inhibition of human SF268 cell growth in a cell viability assay.

COLO-800 = format: functional, cell-based, Homo sapiens; conditions: Homo sapiens, COLO-800;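 further: growth inhibition of COLO-800 cells, read out with a cell viability assay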
Description: SANGER: Inhibition of human COLO-800 cell growth in a cell viability assay.

A498 = format: functional, cell-based, Homo sapiens; conditions: Homo sapiens, A498;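 further: growth inhibition of human A498 cells, read out with a cell viability assay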
Description: SANGER: Inhibition of human A498 cell growth in a cell viability assay.

GOTO = format: functional, cell-based, Homo sapiens; conditions: Homo sapiens, GOTO;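 further: growth inhibition of GOTO cells, read out by a cell viability assay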
Description: SANGER: Inhibition of human GOTO cell growth in a cell viability assay.

KS-1 = format: functional, cell-based; conditions: Homo sapiens;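 further: growth inhibition of KS-1 cells, read out with a cell viability assay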
Description: SANGER: Inhibition of human KS-1 cell growth in a cell viability assay.

SNB-75 = format: functional, cell-based, Homo sapiens; conditions: Homo sapiens, SNB-75;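 further: cell viability assay measuring growth inhibition of human SNB-75 cells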
Description: SANGER: Inhibition of human SNB75 cell growth in a cell viability assay.

RPMI-8866 = format: functional, cell-based, Homo sapiens; conditions: Homo sapiens, RPMI-8866
Description: SANGER: Inhibition of human RPMI-8866 cell growth in a cell viability assay.

KNS-42 = format: functional, cell-based; conditions: Homo sapiens;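 further: growth inhibition of KNS-42 cells, read out with a cell viability assay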
Description: SANGER: Inhibition of human KNS-42 cell growth in a cell viability assay.

A101D = format: functional, cell-based, Homo sapiens; conditions: Homo sapiens, A101D;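 further: growth inhibition of the cell line, measured with a viability assay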
Description: SANGER: Inhibition of human A101D cell growth in a cell viability assay.

DMS-114 = format: functional, cell-based, Homo sapiens; conditions: Homo sapiens, DMS-114
SF-539 = format: functional, cell-based, Homo sapiens; conditions: Homo sapiens, SF-539;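 further: Read-out is a cell viability assay, with IC50 reflecting inhibition of cell growth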
Description: SANGER: Inhibition of human SF539 cell growth in a cell viability assay.

ES6 = format: functional, cell-based; conditions: Homo sapiens;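 further: growth inhibition of human ES6 cells, read out with a cell viability assay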
Description: SANGER: Inhibition of human ES6 cell growth in a cell viability assay.

ES8 = format: functional, cell-based, Homo sapiens; conditions: Homo sapiens, ES8;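 further: growth inhibition of human ES8 cells, read out with a cell viability assay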
Description: SANGER: Inhibition of human ES8 cell growth in a cell viability assay.

SH-4 = format: functional, cell-based; conditions: Homo sapiens;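 further: growth inhibition of SH-4 cells, read out with a cell viability assay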
Description: SANGER: Inhibition of human SH-4 cell growth in a cell viability assay.

HOP-62 = format: functional, cell-based, Homo sapiens; conditions: Homo sapiens, HOP-62;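 further: cell growth inhibition determined with a viability assay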
Description: SANGER: Inhibition of human HOP-62 cell growth in a cell viability assay.

HH = format: functional, cell-based, Homo sapiens; conditions: Homo sapiens, HH
Description: SANGER: Inhibition of human HH cell growth in a cell viability assay.

MFM-223 = format: functional, cell-based, Homo sapiens; conditions: Homo sapiens, MFM-223
Description: SANGER: Inhibition of human MFM-223 cell growth in a cell viability assay.

TE-12 = format: functional, cell-based, Homo sapiens; conditions: Homo sapiens, TE-12;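 further: growth inhibition of TE-12 cells, read out by a cell viability assay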
Description: SANGER: Inhibition of human TE-12 cell growth in a cell viability assay.

CGTH-W-1 = format: functional, cell-based, Homo sapiens; conditions: Homo sapiens, CGTH-W-1;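 further: growth inhibition of human CGTH-W-1 cells measured by cell viability assay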
Description: SANGER: Inhibition of human CGTH-W-1 cell growth in a cell viability assay.

LS-123 = format: functional, cell-based, Homo sapiens; conditions: Homo sapiens, LS-123
Description: SANGER: Inhibition of human LS-123 cell growth in a cell viability assay.

LB2518-MEL = format: functional, cell-based; conditions: Homo sapiens;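 further: growth inhibition of human LB2518-MEL cells, measured with a cell viability assay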
Description: SANGER: Inhibition of human LB2518-MEL cell growth in a cell viability assay.

Ramos-2G6-4C10 = format: functional, cell-based, Homo sapiens; conditions: Homo sapiens, Ramos-2G6-4C10;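 further: growth inhibition of the cell line, measured by a cell viability read-out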
Description: SANGER: Inhibition of human Ramos-2G6-4C10 cell growth in a cell viability assay.

Mo = format: functional, cell-based, Homo sapiens; conditions: Homo sapiens, Mo
Description: SANGER: Inhibition of human Mo-T cell growth in a cell viability assay.

HCE-4 = format: functional, cell-based; conditions: Homo sapiens;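 further: cell viability assay measuring inhibition of growth in the human HCE-4 cell line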
Description: SANGER: Inhibition of human HCE-4 cell growth in a cell viability assay.

C2BBe1 = format: functional, cell-based, Homo sapiens; conditions: Homo sapiens, C2BBe1;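 further: growth inhibition of C2BBe1 cells, read out through a viability assay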
Description: SANGER: Inhibition of human C2BBe1 cell growth in a cell viability assay.

LOX IMVI = format: functional, cell-based, Homo sapiens; conditions: Homo sapiens, LOX IMVI
Description: SANGER: Inhibition of human LOXIMVI cell growth in a cell viability assay.

LNCaP-Clone-FGC = format: functional, cell-based, Homo sapiens; conditions: Homo sapiens, LNCaP-Clone-FGC
Description: SANGER: Inhibition of human LNCaP-Clone-FGC cell growth in a cell viability assay.

GI-1 = format: functional, cell-based, Homo sapiens; conditions: Homo sapiens, GI-1;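 further: growth inhibition of human GI-1 cells, measured with a cell viability readout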
Description: SANGER: Inhibition of human GI-1 cell growth in a cell viability assay.

SF-126 = format: functional, cell-based, Homo sapiens; conditions: Homo sapiens, SF-126;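 further: growth inhibition of human SF126 cells, read out with a cell viability assay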
Description: SANGER: Inhibition of human SF126 cell growth in a cell viability assay.

MZ7-mel = format: functional, cell-based, Homo sapiens; conditions: Homo sapiens, MZ7-mel;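 further: growth inhibition of human MZ7-mel cells, measured by a cell viability assay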
Description: SANGER: Inhibition of human MZ7-mel cell growth in a cell viability assay.

KARPAS-299 = format: functional, cell-based, Homo sapiens; conditions: Homo sapiens, KARPAS-299
Description: SANGER: Inhibition of human KARPAS-299 cell growth in a cell viability assay.

D-263MG = format: functional, cell-based, Homo sapiens; conditions: Homo sapiens, D-263MG
Description: SANGER: Inhibition of human D-263MG cell growth in a cell viability assay.

TGW = format: functional, cell-based, Homo sapiens; conditions: Homo sapiens, TGW;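 further: growth inhibition of human TGW cells, read out with a cell viability assay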
Description: SANGER: Inhibition of human TGW cell growth in a cell viability assay.

MLMA = format: functional, cell-based, Homo sapiens; conditions: Homo sapiens, MLMA;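 further: growth inhibition of MLMA cells (human), determined through a cell viability readout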
Description: SANGER: Inhibition of human MLMA cell growth in a cell viability assay.

GB-1 = format: functional, cell-based, Homo sapiens; conditions: Homo sapiens, GB-1;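 further: growth of GB-1 cells judged by a viability assay, IC50 marks the concentration inhibiting growth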
Description: SANGER: Inhibition of human GB-1 cell growth in a cell viability assay.

BB65-RCC = format: functional, cell-based, Homo sapiens; conditions: Homo sapiens, BB65-RCC;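 further: growth inhibition of the cell line, measured with a cell viability assay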
Description: SANGER: Inhibition of human BB65-RCC cell growth in a cell viability assay.

SK-MEL-1 = format: functional, cell-based, Homo sapiens; conditions: Homo sapiens, SK-MEL-1;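 further: growth inhibition of human SK-MEL-1 cells, read out by a cell viability assay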
Description: SANGER: Inhibition of human SK-MEL-1 cell growth in a cell viability assay.

8-MG-BA = format: functional, cell-based, Homo sapiens; conditions: Homo sapiens, 8-MG-BA;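 further: growth inhibition of 8-MG-BA cells, read out with a cell viability assay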
Description: SANGER: Inhibition of human 8-MG-BA cell growth in a cell viability assay.

TGBC24TKB = format: functional, cell-based; conditions: Homo sapiens;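 further: growth inhibition of human TGBC24TKB cells, read out with a cell viability assay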
Description: SANGER: Inhibition of human TGBC24TKB cell growth in a cell viability assay.

NCI-H209 = format: functional, cell-based, Homo sapiens; conditions: Homo sapiens, NCI-H209;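 further: growth inhibition of human NCI-H209 cells, measured by a cell viability assay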
Description: SANGER: Inhibition of human NCI-H209 cell growth in a cell viability assay.

SCC-15 = format: functional, cell-based, Homo sapiens; conditions: Homo sapiens, SCC-15;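 further: growth inhibition of SCC-15 cells, read out with a cell viability assay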
Description: SANGER: Inhibition of human SCC-15 cell growth in a cell viability assay.

HCC2157 = format: functional, cell-based, Homo sapiens; conditions: Homo sapiens, HCC2157;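 further: growth inhibition of the cancer cell line, read out as cell viability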
Description: SANGER: Inhibition of human HCC2157 cell growth in a cell viability assay.

NCI-H1355 = format: functional, cell-based, Homo sapiens; conditions: Homo sapiens, NCI-H1355;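 further: growth inhibition of human NCI-H1355 cells, read out by a cell viability assay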
Description: SANGER: Inhibition of human NCI-H1355 cell growth in a cell viability assay.

For `Cc1ccc(-n2nc(C(C)(C)C)cc2NC(=O)Nc2ccc(OCCN3CCOCC3)c3ccccc23)cc1` [DORAMAPIMOD], which IC50 (IA-LM) is on record?
Its IC50 is greater than 10 µM.

What about the IC50 (ETK-1) of the same molecule?
The IC50 was greater than 10 µM.

And the IC50 (NTERA-2-cl-D1)?
Its IC50 is greater than 10 µM.

What about the IC50 (ES1) of the same molecule?
Its IC50 is greater than 10 µM.

And the IC50 (VA-ES-BJ)?
Its IC50 is greater than 10 µM.

What about the IC50 (KARPAS-45) of the same molecule?
The IC50 was greater than 10 µM.

What about the IC50 (MZ1-PC) of the same molecule?
Its IC50 is greater than 10 µM.

What about the IC50 (LU-134-A) of the same molecule?
The IC50 was greater than 10 µM.

And the IC50 (SF-268)?
The IC50 was greater than 10 µM.

What about the IC50 (COLO-800) of the same molecule?
Its IC50 is greater than 10 µM.

And the IC50 (A498)?
Its IC50 is greater than 10 µM.

And the IC50 (GOTO)?
The IC50 was 6.39 µM.

And the IC50 (KS-1)?
Its IC50 is greater than 10 µM.

What about the IC50 (SNB-75) of the same molecule?
The IC50 was greater than 10 µM.

What about the IC50 (RPMI-8866) of the same molecule?
Its IC50 is greater than 10 µM.

And the IC50 (KNS-42)?
Its IC50 is greater than 10 µM.

What about the IC50 (A101D) of the same molecule?
The IC50 was greater than 10 µM.

What about the IC50 (DMS-114) of the same molecule?
The IC50 was greater than 10 µM.

What about the IC50 (SF-539) of the same molecule?
Its IC50 is greater than 10 µM.

And the IC50 (ES6)?
The IC50 was greater than 10 µM.

And the IC50 (ES8)?
Its IC50 is greater than 10 µM.

What about the IC50 (SH-4) of the same molecule?
Its IC50 is greater than 10 µM.

And the IC50 (HOP-62)?
The IC50 was greater than 10 µM.

What about the IC50 (HH) of the same molecule?
The IC50 was greater than 10 µM.

And the IC50 (MFM-223)?
The IC50 was greater than 10 µM.

What about the IC50 (TE-12) of the same molecule?
Its IC50 is greater than 10 µM.

What about the IC50 (CGTH-W-1) of the same molecule?
Its IC50 is greater than 10 µM.

And the IC50 (LS-123)?
Its IC50 is greater than 10 µM.

And the IC50 (LB2518-MEL)?
The IC50 was greater than 10 µM.

And the IC50 (Ramos-2G6-4C10)?
Its IC50 is greater than 10 µM.

And the IC50 (Mo)?
The IC50 was greater than 10 µM.

What about the IC50 (HCE-4) of the same molecule?
Its IC50 is greater than 10 µM.

And the IC50 (C2BBe1)?
Its IC50 is greater than 10 µM.

What about the IC50 (LOX IMVI) of the same molecule?
Its IC50 is greater than 10 µM.

And the IC50 (LNCaP-Clone-FGC)?
Its IC50 is greater than 10 µM.

What about the IC50 (GI-1) of the same molecule?
The IC50 was greater than 10 µM.

And the IC50 (SF-126)?
The IC50 was greater than 10 µM.

And the IC50 (MZ7-mel)?
Its IC50 is greater than 10 µM.

What about the IC50 (KARPAS-299) of the same molecule?
The IC50 was greater than 10 µM.

And the IC50 (D-263MG)?
The IC50 was greater than 10 µM.

What about the IC50 (TGW) of the same molecule?
Its IC50 is greater than 10 µM.

What about the IC50 (MLMA) of the same molecule?
Its IC50 is greater than 10 µM.

What about the IC50 (GB-1) of the same molecule?
Its IC50 is greater than 10 µM.

And the IC50 (BB65-RCC)?
The IC50 was greater than 10 µM.

And the IC50 (SK-MEL-1)?
The IC50 was greater than 10 µM.

What about the IC50 (8-MG-BA) of the same molecule?
Its IC50 is greater than 10 µM.

And the IC50 (TGBC24TKB)?
Its IC50 is greater than 10 µM.

What about the IC50 (NCI-H209) of the same molecule?
The IC50 was greater than 10 µM.

And the IC50 (SCC-15)?
Its IC50 is greater than 10 µM.

And the IC50 (HCC2157)?
Its IC50 is greater than 10 µM.

And the IC50 (NCI-H1355)?
Its IC50 is greater than 10 µM.

`COc1ccc(-c2cc3nccn3c(Nc3ncccc3C(N)=O)n2)cc1OC` was tested. Which IC50 (IA-LM) did it give?
The IC50 was 2.71 µM.

And the IC50 (ETK-1)?
The IC50 was 5.21 µM.

And the IC50 (NTERA-2-cl-D1)?
The IC50 was 1.96 µM.

What about the IC50 (ES1) of the same molecule?
The IC50 was 2.38 µM.

What about the IC50 (VA-ES-BJ) of the same molecule?
Its IC50 is greater than 8 µM.

And the IC50 (KARPAS-45)?
The IC50 was 1.9 µM.

What about the IC50 (MZ1-PC) of the same molecule?
Its IC50 is 3.49 µM.

And the IC50 (LU-134-A)?
Its IC50 is 4.32 µM.

What about the IC50 (SF-268) of the same molecule?
Its IC50 is 2.83 µM.

And the IC50 (COLO-800)?
The IC50 was greater than 8 µM.

And the IC50 (A498)?
The IC50 was greater than 8 µM.

And the IC50 (GOTO)?
The IC50 was 3.42 µM.

And the IC50 (KS-1)?
Its IC50 is 2.78 µM.

And the IC50 (SNB-75)?
The IC50 was greater than 8 µM.

And the IC50 (RPMI-8866)?
Its IC50 is greater than 8 µM.

And the IC50 (KNS-42)?
The IC50 was greater than 8 µM.

What about the IC50 (A101D) of the same molecule?
Its IC50 is 4.87 µM.

And the IC50 (DMS-114)?
The IC50 was greater than 8 µM.

What about the IC50 (SF-539) of the same molecule?
Its IC50 is greater than 8 µM.

What about the IC50 (ES6) of the same molecule?
The IC50 was 1.24 µM.

What about the IC50 (ES8) of the same molecule?
The IC50 was 5.98 µM.

What about the IC50 (SH-4) of the same molecule?
Its IC50 is greater than 8 µM.

What about the IC50 (HOP-62) of the same molecule?
The IC50 was 1.75 µM.

What about the IC50 (HH) of the same molecule?
Its IC50 is greater than 8 µM.

What about the IC50 (MFM-223) of the same molecule?
Its IC50 is greater than 8 µM.

And the IC50 (TE-12)?
The IC50 was 0.531 µM.

And the IC50 (CGTH-W-1)?
The IC50 was 3.37 µM.

And the IC50 (LS-123)?
Its IC50 is greater than 8 µM.

And the IC50 (LB2518-MEL)?
The IC50 was greater than 8 µM.

And the IC50 (Ramos-2G6-4C10)?
Its IC50 is 2.95 µM.

What about the IC50 (Mo) of the same molecule?
The IC50 was 4.96 µM.

And the IC50 (HCE-4)?
Its IC50 is 5.02 µM.

And the IC50 (C2BBe1)?
Its IC50 is greater than 8 µM.

And the IC50 (LOX IMVI)?
Its IC50 is 2.66 µM.

What about the IC50 (LNCaP-Clone-FGC) of the same molecule?
Its IC50 is 2.18 µM.

And the IC50 (GI-1)?
Its IC50 is 5.41 µM.

What about the IC50 (SF-126) of the same molecule?
Its IC50 is greater than 8 µM.

And the IC50 (MZ7-mel)?
The IC50 was greater than 8 µM.

What about the IC50 (KARPAS-299) of the same molecule?
The IC50 was greater than 8 µM.

What about the IC50 (D-263MG) of the same molecule?
Its IC50 is greater than 8 µM.

What about the IC50 (TGW) of the same molecule?
The IC50 was greater than 8 µM.

And the IC50 (MLMA)?
Its IC50 is 0.993 µM.

And the IC50 (GB-1)?
Its IC50 is 2.83 µM.

What about the IC50 (BB65-RCC) of the same molecule?
The IC50 was 5.13 µM.

And the IC50 (SK-MEL-1)?
The IC50 was greater than 8 µM.

What about the IC50 (8-MG-BA) of the same molecule?
The IC50 was greater than 8 µM.

And the IC50 (TGBC24TKB)?
Its IC50 is greater than 8 µM.

What about the IC50 (NCI-H209) of the same molecule?
Its IC50 is greater than 8 µM.

What about the IC50 (SCC-15) of the same molecule?
The IC50 was greater than 8 µM.

What about the IC50 (HCC2157) of the same molecule?
Its IC50 is greater than 8 µM.

What about the IC50 (NCI-H1355) of the same molecule?
Its IC50 is 3.49 µM.
